Experimental data: PubChem BioAssay AID248 (DTP/NCI, 2004)
“And” between values parts separate entries of the source, which are not always exact repeats. Equal entries are not always repeated. Toxic doses and inconclusive results are not listed. Rule as the data show it: active = T/C of 150% or more; inactive = T/C below 125%.

Test system: L1210 leukemia ip in BDF1 mice, survival T/C
Test: NCI In Vivo Anticancer Drug Screen. Data for tumor model L1210 Leukemia (intraperitoneal) in B6D2F1 (BDF1) mice
Conditions: endpoint: mean survival time, higher = longer survival
Summary of the method: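 Antitumor effect is assessed in tumor-bearing animals. Survival in the compound arm is compared with a vehicle-dosed control arm and expressed as their quotient.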

[1] = dose: 100.0 mg/kg/injection, schedule: Q04DX002 (ip), vehicle: Klucel (hydroxypropylcellulose) (HPC)
[2] = dose: 50.0 mg/kg/injection, schedule: Q01DX009 (ip), vehicle: saline with Tween-80
[3] = dose: 100.0 mg/kg/injection, schedule: Q01DX009 (ip), vehicle: saline with Tween-80
[4] = dose: 100.0 mg/kg/injection, schedule: Q04DX003 (ip), vehicle: saline
[5] = dose: 200.0 mg/kg/injection, schedule: Q04DX003 (ip), vehicle: saline
[6] = dose: 400.0 mg/kg/injection, schedule: Q01DX009 (ip), vehicle: saline
[7] = dose: 400.0 mg/kg/injection, schedule: Q04DX003 (ip), vehicle: saline
[8] = dose: 100.0 mg/kg/injection, schedule: Q04DX003 (ip), vehicle: saline with Tween-80
[9] = dose: 200.0 mg/kg/injection, schedule: Q01DX009 (ip), vehicle: saline with Tween-80
[10] = dose: 200.0 mg/kg/injection, schedule: Q04DX003 (ip), vehicle: saline with Tween-80

Measured: T/C

c1ccc(-c2nccnc2-c2ccccc2)cc1
inactive: [1] 93 % of control | dose: 200.0 mg/kg/injection, schedule: Q04DX002 (ip), vehicle: Klucel (hydroxypropylcellulose) (HPC) 107 % of control | dose: 400.0 mg/kg/injection, schedule: Q04DX002 (ip), vehicle: Klucel (hydroxypropylcellulose) (HPC) 111 % of control

Cc1ccc2c(N=Nc3ccc(N(C)C)cc3)cccc2n1
inactive: dose: 25.0 mg/kg/injection, schedule: Q01DX009 (ip), vehicle: saline with Tween-80 93 % of control | [2] 93 % of control | [3] 98 % of control

O=Cc1cccn1Cc1cc2c(cc1[N+](=O)[O-])OCO2
inactive: dose: 25.0 mg/kg/injection, schedule: Q04DX002 (ip), vehicle: Klucel (hydroxypropylcellulose) (HPC) 101 % of control | dose: 50.0 mg/kg/injection, schedule: Q04DX002 (ip), vehicle: Klucel (hydroxypropylcellulose) (HPC) 101 % of control | [1] 97 % of control

O=C(NOC(=O)c1ccco1)c1ccccc1
inactive: dose: 100.0 mg/kg/injection, schedule: Q04DX003 (ip), vehicle: Klucel (hydroxypropylcellulose) (HPC) 97 % of control | dose: 200.0 mg/kg/injection, schedule: Q04DX003 (ip), vehicle: Klucel (hydroxypropylcellulose) (HPC) 113 % of control | dose: 400.0 mg/kg/injection, schedule: Q04DX003 (ip), vehicle: Klucel (hydroxypropylcellulose) (HPC) 104 % of control

COC1OCCCC1Br (stereo not drawn)
inactive: dose: 100.0 mg/kg/injection, schedule: Q01DX001 (ip), vehicle: saline 91 % of control | dose: 200.0 mg/kg/injection, schedule: Q01DX001 (ip), vehicle: saline 102 % of control | dose: 400.0 mg/kg/injection, schedule: Q01DX001 (ip), vehicle: saline 107 % of control

CC1CCCC(C)N1 (stereo not drawn)
inactive: dose: 50.0 mg/kg/injection, schedule: Q01DX009 (ip), vehicle: saline 94 % of control | dose: 100.0 mg/kg/injection, schedule: Q01DX009 (ip), vehicle: saline 96 % of control and 100 % of control | [4] 110 % of control and 102 % of control | dose: 200.0 mg/kg/injection, schedule: Q01DX009 (ip), vehicle: saline 94 % of control and 106 % of control | [5] 102 % of control and 94 % of control | [6] 95 % of control | [7] 87 % of control

COC1/C=C/O[C@@]2(C)Oc3c(C)c(O)c4c(O)c(cc(O)c4c3C2=O)NC(=O)/C(C)=C\C=C\[C@H](C)C(O)[C@@H](C)[C@@H](O)[C@@H](C)[C@H](OC(C)=O)[C@@H]1C (stereo partly drawn)
inactive: dose: 4.0 mg/kg/injection, schedule: Q03HX040 (ip), vehicle: saline 101 % of control | dose: 8.0 mg/kg/injection, schedule: Q03HX040 (ip), vehicle: saline 103 % of control | dose: 16.0 mg/kg/injection, schedule: Q03HX040 (ip), vehicle: saline 97 % of control | [3] 104 % of control | [8] 95 % of control | dose: 119.0 mg/kg/injection, schedule: Q01DX009 (ip), vehicle: saline 98 % of control | dose: 128.0 mg/kg/injection, schedule: Q03HX024 (ip), vehicle: saline 92 % of control | dose: 128.0 mg/kg/injection, schedule: Q03HX040 (ip), vehicle: saline 89 % of control | dose: 178.0 mg/kg/injection, schedule: Q01DX009 (ip), vehicle: saline 96 % of control | [9] 92 % of control | [10] 87 % of control | dose: 256.0 mg/kg/injection, schedule: Q03HX024 (ip), vehicle: saline 93 % of control | dose: 267.0 mg/kg/injection, schedule: Q01DX009 (ip), vehicle: saline 98 % of control | dose: 400.0 mg/kg/injection, schedule: Q01DX009 (ip), vehicle: saline with Tween-80 97 % of control | [6] 104 % of control | dose: 400.0 mg/kg/injection, schedule: Q04DX003 (ip), vehicle: saline with Tween-80 101 % of control | dose: 512.0 mg/kg/injection, schedule: Q03HX024 (ip), vehicle: saline 92 % of control | dose: 512.0 mg/kg/injection, schedule: Q03HX040 (ip), vehicle: saline 88 % of control | dose: 1024.0 mg/kg/injection, schedule: Q03HX024 (ip), vehicle: saline 98 % of control

CC(=O)Nc1cccc2c(C)ccnc12
inactive: dose: 12.5 mg/kg/injection, schedule: Q01DX009 (ip), vehicle: Klucel (hydroxypropylcellulose) (HPC) 99 % of control | dose: 12.5 mg/kg/injection, schedule: Q04DX003 (ip), vehicle: Klucel (hydroxypropylcellulose) (HPC) 94 % of control | dose: 25.0 mg/kg/injection, schedule: Q01DX009 (ip), vehicle: Klucel (hydroxypropylcellulose) (HPC) 97 % of control | dose: 25.0 mg/kg/injection, schedule: Q04DX003 (ip), vehicle: Klucel (hydroxypropylcellulose) (HPC) 98 % of control | dose: 50.0 mg/kg/injection, schedule: Q01DX009 (ip), vehicle: Klucel (hydroxypropylcellulose) (HPC) 87 % of control | dose: 50.0 mg/kg/injection, schedule: Q04DX003 (ip), vehicle: Klucel (hydroxypropylcellulose) (HPC) 95 % of control

CCOC(=O)NC(=O)NC(=O)OCC
inactive: dose: 75.0 mg/kg/injection, schedule: Q01DX009 (ip), vehicle: saline sonified 92 % of control | [4] 107 % of control | dose: 150.0 mg/kg/injection, schedule: Q01DX009 (ip), vehicle: saline sonified 94 % of control | [5] 119 % of control | dose: 300.0 mg/kg/injection, schedule: Q01DX009 (ip), vehicle: saline sonified 96 % of control | [7] 104 % of control

CC(=O)/C(C)=C/C=O
inactive: dose: 0.78 mg/kg/injection, schedule: Q01DX009 (ip), vehicle: water 100 % of control | dose: 1.56 mg/kg/injection, schedule: Q01DX009 (ip), vehicle: water 102 % of control | dose: 3.12 mg/kg/injection, schedule: Q01DX009 (ip), vehicle: water 94 % of control | dose: 3.12 mg/kg/injection, schedule: Q04DX003 (ip), vehicle: water 95 % of control | dose: 6.25 mg/kg/injection, schedule: Q01DX009 (ip), vehicle: water 102 % of control | dose: 6.25 mg/kg/injection, schedule: Q04DX003 (ip), vehicle: water 101 % of control | dose: 12.5 mg/kg/injection, schedule: Q01DX009 (ip), vehicle: water 107 % of control | dose: 12.5 mg/kg/injection, schedule: Q04DX003 (ip), vehicle: water 100 % of control and 101 % of control

OCC1OC(n2cnc3c(NCCCCNc4ncnc5c4ncn5C4OC(CO)C(O)C4O)ncnc32)C(O)C1O (stereo not drawn)
inactive: dose: 100.0 mg/kg/injection, schedule: Q01DX005 (ip), vehicle: saline 100 % of control | dose: 200.0 mg/kg/injection, schedule: Q01DX005 (ip), vehicle: saline 108 % of control

CCCCCCCC/C=C\CCCCCCCCOC(N)=O
inactive: dose: 50.0 mg/kg/injection, schedule: Q01DX009 (ip), vehicle: other 96 % of control | dose: 100.0 mg/kg/injection, schedule: Q01DX009 (ip), vehicle: other 94 % of control | [8] 100 % of control | dose: 200.0 mg/kg/injection, schedule: Q01DX009 (ip), vehicle: other 89 % of control | [10] 95 % of control

Cc1cc([N+](=O)[O-])c([N+](=O)[O-])cc1Cl
inactive: [2] 115 % of control | dose: 100.0 mg/kg/injection, schedule: Q01DX001 (ip), vehicle: Klucel (hydroxypropylcellulose) (HPC) 105 % of control | [3] 115 % of control | dose: 200.0 mg/kg/injection, schedule: Q01DX001 (ip), vehicle: Klucel (hydroxypropylcellulose) (HPC) 115 % of control | [9] 109 % of control

CCCCCCCCCC(=O)N1CCC(C)CC1
inactive: dose: 100.0 mg/kg/injection, schedule: Q04DX002 (ip), vehicle: saline 111 % of control | dose: 200.0 mg/kg/injection, schedule: Q04DX002 (ip), vehicle: saline 104 % of control | dose: 400.0 mg/kg/injection, schedule: Q04DX002 (ip), vehicle: saline 101 % of control

NC(=O)N/N=C1\CC2CC1C1CCCC21 (stereo not drawn)
inactive: dose: 100.0 mg/kg/injection, schedule: Q04DX003 (ip), vehicle: other 104 % of control | dose: 200.0 mg/kg/injection, schedule: Q04DX003 (ip), vehicle: other 98 % of control | dose: 400.0 mg/kg/injection, schedule: Q04DX003 (ip), vehicle: other 94 % of control

O=C1C(Cl)=C(N/N=c2/[nH][nH]/c(=N/NC3=C(Cl)C(=O)c4ccccc4C3=O)c3ccccc23)C(=O)c2ccccc21
inactive: dose: 25.0 mg/kg/injection, schedule: Q01DX001 (ip), vehicle: carboxymethylcellulose (CMC) 104 % of control | dose: 50.0 mg/kg/injection, schedule: Q01DX001 (ip), vehicle: carboxymethylcellulose (CMC) 101 % of control

O=[N+]([O-])c1ccccc1N=Nc1c(O)[nH]c2c(Cl)ccc(Cl)c12
inactive: dose: 75.0 mg/kg/injection, schedule: Q01DX001 (ip), vehicle: saline 89 % of control | dose: 150.0 mg/kg/injection, schedule: Q01DX001 (ip), vehicle: saline 93 % of control
